Results on 13 molecules are retold here after US12421254B2, “KRAS modulators and uses thereof” (Quanta Therapeutics, Inc., priority 2023, dated 2025).

Structures are written as SMILES.

In experiment [1] the target is GST-tagged KRAS-G12D (2-169) (Homo sapiens, UniProt P01116, G12D). In words: Nucleotide exchange assay (NEA), SOS-mediated, HTRF, KRAS G12D. The format is biochemical. The conditions noted are these: Table 4; IC50 extracted at 30 min; 20 nM SOScat; read-out: NEA G12D IC50. The gist of the method:
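SOS1cat-driven loading of fluorescent GTP-DY-647P1 (150 nM) onto GST-KRAS-G12D (2-169, 0.25 nM) read by time-resolved FRET; SOScat 20 nM, compound preincubated with KRAS 1 h at RT. Signal blanked to no-SOS reactions, normalized to DMSO; IC50 fitted from the 30-min read.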
In general terms: Time-resolved FRET reads energy transfer from a long-lived donor to a nearby acceptor.

In experiment [2] the target is GST-tagged KRAS-G12V (2-169) (Homo sapiens, UniProt P01116, G12V). In words: Nucleotide exchange assay (NEA), SOS-mediated, HTRF, KRAS G12V. The conditions noted are these: Table 4; IC50 extracted at 90 min; 80 nM SOS. Format: biochemical. In short, it runs like this:
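Exchange onto fluorescent GTP-DY-647P1 (150 nM final) catalysed by 80 nM SOS1cat was followed by Tb-anti-GST HTRF at RT for up to 90 min, after 1 h compound pre-incubation with 0.25 nM GST-tagged KRAS-G12V (2-169), pH 7.3. DMSO = 0%, no-SOS blank = 100%; 4-parameter IC50 taken at 90 min.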

Chain of GST-tagged KRAS-G12D (2-169) (P01116 2-169 isoform P01116-2 G12D): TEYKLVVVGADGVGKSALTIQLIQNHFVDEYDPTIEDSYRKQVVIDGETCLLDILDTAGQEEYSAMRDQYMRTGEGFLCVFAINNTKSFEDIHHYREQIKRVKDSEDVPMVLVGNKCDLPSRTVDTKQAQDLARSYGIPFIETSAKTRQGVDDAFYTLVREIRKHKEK
Chain of GST-tagged KRAS-G12V (2-169) (P01116 2-169 isoform P01116-2 G12V): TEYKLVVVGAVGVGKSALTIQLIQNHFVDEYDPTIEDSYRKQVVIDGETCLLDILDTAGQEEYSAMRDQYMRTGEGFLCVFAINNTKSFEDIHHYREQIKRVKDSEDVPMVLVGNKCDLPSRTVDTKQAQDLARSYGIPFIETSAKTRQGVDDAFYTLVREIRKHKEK

`C[C@H](c1cccnc1N)N(C)c1nc(OC[C@@]23CCCN2C[C@H](F)C3)nc(N2CCC3(CCCc4sc(N)c(C#N)c43)C2=O)n1` (single isomer, unassigned) [Compound 175B, (*)-2-amino-1′-(4-(((R)-1-(2-aminopyridin-3-yl)ethyl)(methyl)amino)-6-(((2R,7aS)-2-fluorotetrahydro-1H-pyrrolizin-7a(5H)-yl)methoxy)-1,3,5-triazin-2-yl)-2′-oxo-6,7-dihydro-5H-spiro[benzo[b]thiophene-4,3′-pyrrolidine]-3-carbonitrile]: the IC50 is 100 to 1000 nM in experiment [1] and less than 10 nM in experiment [2].
The matching figures for `CC(c1ccc[n+]([O-])c1)N(C)c1nc(OC[C@@]23CCCN2C[C@H](F)C3)nc(N2CC3(C2)SCc2sc(N)c(C#N)c23)n1` (stereo partly drawn) [Compound 224, 3-(1-((4-(2′-amino-3′-cyano-6′H-spiro[azetidine-3,4′-thieno[3,4-b]thiophen]-1-yl)-6-(((2R,7aS)-2-fluorotetrahydro-1H-pyrrolizin-7a(5H)-yl)methoxy)-1,3,5-triazin-2-yl)(methyl)amino)ethyl)pyridine 1-oxide]: 10 to 100 nM and 10 to 100 nM.
On to `CC(c1ccnn1C)N(C)c1nc(OC[C@@]23CCCN2C[C@H](F)C3)nc(N2CC3(CCc4sc(N)c(C#N)c43)C2)n1` (stereo partly drawn) [Compound 125, 2-amino-1′-[4-[[(2R,8S)-2-fluoro-1,2,3,5,6,7-hexahydropyrrolizin-8-yl]methoxy]-6-[methyl-[i-(2-methylpyrazol-3-yl)ethyl]amino]-1,3,5-triazin-2-yl]spiro[5,6-dihydrocyclopenta[b]thiophene-4,3′-azetidine]-3-carbonitrile], for which the IC50 in experiment [1] lay within 1000 to 20000 nM; in experiment [2] it was 10 to 100 nM.
The matching figures for `C[C@H](c1cccnc1N)N(C)c1nc(OCC2(N(C)C)CC2)nc(N2CC3(C2)SCc2sc(N)c(C#N)c23)n1` [Compound 181, 2-amino-1′-[4-[[(1R)-1-(2-amino-3-pyridyl)ethyl]-methyl-amino]-6-[[1-(dimethylamino)cyclopropyl]methoxy]-1,3,5-triazin-2-yl]spiro[6H-thieno[2,3-c]thiophene-4,3′-azetidine]-3-carbonitrile]: 100 to 1000 nM and 10 to 100 nM.
In the same order, the values of `CCN(c1nc(OC[C@@]23CCCN2C[C@H](F)C3)nc(N2CC3(C2)SCc2sc(N)c(C#N)c23)n1)C1(C(N)=O)CC1` [Compound 234, 1-[[4-(2-amino-3-cyano-spiro[6H-thieno[3,4-b]thiophene-4,3′-azetidine]-1′-yl)-6-[[(2R,8S)-2-fluoro-1,2,3,5,6,7-hexahydropyrrolizin-8-yl]methoxy]-1,3,5-triazin-2-yl]-ethyl-amino]cyclopropanecarboxamide] are 100 to 1000 nM and 10 to 100 nM.
As to `C[C@@H]1[C@H](C#N)CCCN1c1nc(OC[C@@]23CCCN2C[C@H](F)C3)nc(N2CC3(CCc4sc(N)c(C#N)c43)C2)n1` (racemic) [Compound 29, 2-amino-1′-[4-[rac-(2R,3R)-3-cyano-2-methyl-1-piperidyl]-6-[[(2R,8S)-2-fluoro-1,2,3,5,6,7-hexahydropyrrolizin-8-yl]methoxy]-1,3,5-triazin-2-yl]spiro[5,6-dihydrocyclopenta[b]thiophene-4,3′-azetidine]-3-carbonitrile], the IC50 in experiment [1] and in experiment [2] was 100 to 1000 nM throughout.
Consider `N#Cc1c(N)sc2c1C1(CN(c3nc(OC[C@@]45CCCN4C[C@H](F)C5)nc(N4[C@@H]5CC[C@H]4C[C@H](O)C5)n3)C1)SC2` [Compound 275, 2-amino-1′-[4-[[(2R,8S)-2-fluoro-1,2,3,5,6,7-hexahydropyrrolizin-8-yl]methoxy]-6-[(1S,5R)-3-hydroxy-8-azabicyclo[3.2.1]octan-8-yl]-1,3,5-triazin-2-yl]spiro[6H-thieno[3,4-b]thiophene-4,3′-azetidine]-3-carbonitrile], for which the 50% inhibitory concentration (IC50) in experiment [1] and in experiment [2] was 100 to 1000 nM in each case.
For the molecule `CN(c1nc(OC[C@@]23CCCN2C[C@H](F)C3)nc(N2CC3(CCc4sc(N)c(C#N)c43)C2)n1)[C@H]1COC[C@H]1O` (racemic) [Compound 53, 2-amino-1′-[4-[[(2R,8S)-2-fluoro-1,2,3,5,6,7-hexahydropyrrolizin-8-yl]methoxy]-6-[[rac-(3S,4S)-4-hydroxytetrahydrofuran-3-yl]-methyl-amino]-1,3,5-triazin-2-yl]spiro[5,6-dihydrocyclopenta[b]thiophene-4,3′-azetidine]-3-carbonitrile], the IC50 in experiment [1] lay in the range of 1000 to 20000 nM; in experiment [2] it was 100 to 1000 nM.
The matching figures for `CC(c1nccnc1O)N(C)c1nc(OC[C@@]23CCCN2C[C@H](F)C3)nc(N2CC3(CCc4sc(N)c(C#N)c43)C2)n1` (stereo partly drawn) [Compound 150, 2-amino-1′-[4-[[(2R,8S)-2-fluoro-1,2,3,5,6,7-hexahydropyrrolizin-8-yl]methoxy]-6-[1-(3-hydroxypyrazin-2-yl)ethyl-methyl-amino]-1,3,5-triazin-2-yl]spiro[5,6-dihydrocyclopenta[b]thiophene-4,3′-azetidine]-3-carbonitrile]: 1000 to 20000 nM and 100 to 1000 nM.
As for `C[C@H](c1cccnc1N)N(CC(N)=O)c1nc(OC[C@@]23CCCN2C[C@H](F)C3)nc(N2CC3(C2)SCc2sc(N)c(C#N)c23)n1` [Compound 199, 2-[[4-(2-amino-3-cyano-spiro[6H-thieno[3,4-b]thiophene-4,3′-azetidine]-1′-yl)-6-[[(2R,8S)-2-fluoro-1,2,3,5,6,7-hexahydropyrrolizin-8-yl]methoxy]-1,3,5-triazin-2-yl]-[(1R)-1-(2-amino-3-pyridyl)ethyl]amino]acetamide], the IC50 in experiment [1] and in experiment [2] was less than 10 nM each time.
Turning to `N#Cc1c(N)sc2c1C1(CC2)CN(c2nc(OCC3(CN4CCOCC4)CC3)nc(N3CCCC(O)(CO)C3)n2)C1` (centres unmarked) [Compound 95, 2-amino-1′-[4-[3-hydroxy-3-(hydroxymethyl)-1-piperidyl]-6-[[1-(morpholinomethyl)cyclopropyl]methoxy]-1,3,5-triazin-2-yl]spiro[5,6-dihydrocyclopenta[b]thiophene-4,3′-azetidine]-3-carbonitrile], the IC50 in experiment [1] and in experiment [2] was 10 to 100 nM in each case.
Consider `N#Cc1c(N)sc2c1C1(CN(c3nc(OC[C@@]45CCCN4C[C@H](F)C5)nc(N4CCC5(CC4)COC5=O)n3)C1)SC2` [Compound 283, 2-amino-1′-[4-[[(2R,8S)-2-fluoro-1,2,3,5,6,7-hexahydropyrrolizin-8-yl]methoxy]-6-(3-oxo-2-oxa-7-azaspiro[3.5]nonan-7-yl)-1,3,5-triazin-2-yl]spiro[6H-thieno[3,4-b]thiophene-4,3′-azetidine]-3-carbonitrile], for which the IC50 in experiment [1] and in experiment [2] was 100 to 1000 nM each time.
`CC(c1nsnc1N)N(C)c1nc(OC[C@@]23CCCN2C[C@H](F)C3)nc(N2CC3(C2)SCc2sc(N)c(C#N)c23)n1` (single isomer, unassigned) [Compound 184B, 2-amino-1′-[4-[[(1*)-1-(4-amino-1,2,5-thiadiazol-3-yl)ethyl]-methyl-amino]-6-[[(2R,8S)-2-fluoro-1,2,3,5,6,7-hexahydropyrrolizin-8-yl]methoxy]-1,3,5-triazin-2-yl]spiro[6H-thieno[2,3-c]thiophene-4,3′-azetidine]-3-carbonitrile]: the figures for the IC50 in experiment [1] and in experiment [2] were 100 to 1000 nM and 10 to 100 nM, respectively.

What is called IC50 is the concentration needed to halve the response being measured.
